Results taken from the kinase profiling compilation of Christmann-Franck et al. (2016).

System: SGK1 (human), O00141 [S422D]
Test: radiometric filter-binding kinase assay, Kinase HotSpot
Settings: compound 0.5 µM; ATP 10 µM

SGK1 (human), O00141 [S422D], sequence (O00141 whole entry S422D, looked up): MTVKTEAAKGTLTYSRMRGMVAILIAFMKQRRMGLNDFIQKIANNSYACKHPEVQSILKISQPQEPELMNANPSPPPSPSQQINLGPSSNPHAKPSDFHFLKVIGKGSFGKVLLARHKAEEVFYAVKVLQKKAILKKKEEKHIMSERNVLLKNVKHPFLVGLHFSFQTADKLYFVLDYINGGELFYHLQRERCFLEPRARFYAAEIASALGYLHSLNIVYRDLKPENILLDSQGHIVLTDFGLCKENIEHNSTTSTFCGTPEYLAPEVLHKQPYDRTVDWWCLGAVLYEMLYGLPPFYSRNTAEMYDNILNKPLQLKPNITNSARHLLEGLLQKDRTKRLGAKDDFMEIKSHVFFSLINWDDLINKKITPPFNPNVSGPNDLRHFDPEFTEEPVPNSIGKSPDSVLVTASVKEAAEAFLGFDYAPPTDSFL

Row | SMILES | residual activity [%]
1 | NC(=O)c1cccc(-c2cc(Nc3ccc(OC(F)(F)F)cc3)ncn2)c1 | 101
2 | O=C1C(Cl)=C(N2C(=O)CCC2=O)C(=O)c2ccccc21 | 104
3 | Cn1sc(=O)n(Cc2ccccc2)c1=O | 94
4 | O=C1Nc2ccc(Cl)cc2/C1=C/c1cc(Cl)c(O)c(Cl)c1 | 91.3
5 | c1ccc(-c2n[nH]c3c2oc2ccccc23)cc1 | 101
6 | CC(C)N(CCC(=O)c1ccc2ccccc2c1)Cc1ccccc1 | 101
7 | CC(C)n1cnc2c(Nc3cccc(Cl)c3)nc(NCCO)nc21 | 115
8 | O=C1NC(=O)C(c2c[nH]c3ccccc23)=C1c1c[nH]c2ccccc12 | 105
9 | CC#CC(=O)Nc1cc2c(Nc3ccc(F)c(Cl)c3)ncnc2cn1 | 95.6
10 | COc1ccc2c(c1)c(C1=C(c3c[nH]c4ccccc34)C(=O)NC1=O)cn2CCCN(C)C | 99.5
11 | CNC(=O)c1cc(Oc2ccc(NC(=O)Nc3ccc(Cl)c(C(F)(F)F)c3)cc2)ccn1 | 95.2
12 | Cc1cc2ncc(-c3ccccc3)nc2cc1C | 103
13 | CCCNC(=O)Nc1ccc(Oc2ncnc3cc(OC)c(OC)cc23)cc1Cl | 96.2
14 | CC(C)[C@H](CO)Nc1nc(Nc2cc(N)cc(Cl)c2)c2ncn(C(C)C)c2n1 | 93.1
15 | N#C/C(=C(/N)Sc1ccc(N)cc1)c1ccccc1C(F)(F)F | 102
16 | CC[C@@H](CO)Nc1nc(NCc2ccccc2)c2ncn(C(C)C)c2n1 | 120
17 | CS(=O)(=O)CCNCc1ccc(-c2ccc3ncnc(Nc4ccc(OCc5cccc(F)c5)c(Cl)c4)c3c2)o1 | 128
18 | CCN(CC)CCNC(=O)c1c(C)[nH]c(/C=C2\C(=O)Nc3ccc(Cl)cc32)c1C | 49.6
19 | Oc1ccc(-c2nc(-c3ccc(F)cc3)c(-c3ccncc3)[nH]2)cc1 | 101
20 | Nc1ccc2ncnc(NCCc3ccc(Oc4ccccc4)cc3)c2c1 | 104
21 | Cc1cccc(-c2nc(C(C)(C)C)[nH]c2-c2ccc3c(c2)OCO3)n1 | 99.6

Row | SMILES | residual activity [%]
22 | COc1ccc(Cl)cc1NC(=O)Nc1cc(C)nc2ccccc12 | 94.7
23 | O=c1cc(-c2cccc3c2Sc2ccccc2S3)oc(N2CCOCC2)c1 | 90.6
24 | Nc1nc(Nc2ccc(S(N)(=O)=O)cc2)nn1C(=O)c1c(F)cccc1F | 93
25 | COc1ccc2c(c[n+](C)c3c4cc5c(cc4ccc23)OCO5)c1OC | 118
26 | COc1cc2ncnc(Nc3ccc(F)c(Cl)c3)c2cc1OCCCN1CCOCC1 | 131
27 | COc1cc2ncnc(Nc3ccc(Oc4ccccc4)cc3)c2cc1OC | 103
28 | NC(=O)c1ccc(N(C(N)=O)c2c(F)cccc2F)nc1-c1ccc(F)cc1F | 121
29 | CCN(CC)C(=O)c1ccc(Nc2nc(OCC3CCCCC3)c3nc[nH]c3n2)cc1 | 84.7
30 | N#C/C(=C\c1ccc(O)c(O)c1)C(=O)NCc1ccccc1 | 103
31 | CC(C)(C)c1nc2c3ccc(F)cc3c3c(=O)[nH]ccc3c2[nH]1 | 50.9
32 | Cc1[nH]c(/C=C2\C(=O)Nc3ccc(S(=O)(=O)N(C)c4cccc(Cl)c4)cc32)c(C)c1C(=O)N1CCN(C)CC1 | 103
33 | O=C1Nc2ccccc2/C1=C1/Nc2ccccc2/C1=N\OCCC(O)CO (stereo unspecified) | 51
34 | Clc1ccc(Nc2nnc(Cc3ccncc3)c3ccccc23)cc1 | 121
35 | O=S(=O)(c1cccc2cnccc12)N1CCCNCC1 | 96.6
36 | CN(C)S(=O)(=O)c1ccc2c(c1)/C(=C/c1cc3c([nH]1)CCCC3)C(=O)N2 | 105
37 | CO[C@@H]1[C@H](N(C)C(=O)c2ccccc2)C[C@H]2O[C@]1(C)n1c3ccccc3c3c4c(c5c6ccccc6n2c5c31)C(=O)NC4 | 81.9
38 | CCOC(=O)c1c(C)[nH]c(/C=C2\C(=O)Nc3ccccc32)c1C | 92
39 | CC(=O)c1ccc(N2CCOCC2)cc1O | 97.2
40 | CC[n+]1c(/C=C/N(C)c2ccccc2)n(-c2ccccc2)c2ccc(-c3nc4ccccc4s3)cc21 | 97.2
41 | Cn1cnc2cc3c(Nc4cccc(Br)c4)ncnc3cc21 | 115
